According to patent US5066658A, “Substituted hydroxyureas” (Ortho Pharmaceutical Corporation, priority 1990, dated 1991):

What was measured:
[1] = molecular target: T1, 5-lipoxygenase (Rattus norvegicus, UniProt P12527); assay: Inhibition of 5-lipoxygenase in cell-free homogenate of rat basophilic leukemia (RBL-1) cells; type: biochemical; details: RBL-1 cell-free homogenate; for inhibition at 3 µM: read-out: Inhibition of 5-Lipoxygenase, % Inh. @ 3 μM
T1 construct: The cell-free homogenate was prepared by sonication of the cells followed by centrifugation at 40,000 xg; endogenous in cells; host or cells: RBL-1 (rat basophilic leukemia) cells, 40,000 xg supernatant of the sonicate
T1 sequence (P12527 1-673): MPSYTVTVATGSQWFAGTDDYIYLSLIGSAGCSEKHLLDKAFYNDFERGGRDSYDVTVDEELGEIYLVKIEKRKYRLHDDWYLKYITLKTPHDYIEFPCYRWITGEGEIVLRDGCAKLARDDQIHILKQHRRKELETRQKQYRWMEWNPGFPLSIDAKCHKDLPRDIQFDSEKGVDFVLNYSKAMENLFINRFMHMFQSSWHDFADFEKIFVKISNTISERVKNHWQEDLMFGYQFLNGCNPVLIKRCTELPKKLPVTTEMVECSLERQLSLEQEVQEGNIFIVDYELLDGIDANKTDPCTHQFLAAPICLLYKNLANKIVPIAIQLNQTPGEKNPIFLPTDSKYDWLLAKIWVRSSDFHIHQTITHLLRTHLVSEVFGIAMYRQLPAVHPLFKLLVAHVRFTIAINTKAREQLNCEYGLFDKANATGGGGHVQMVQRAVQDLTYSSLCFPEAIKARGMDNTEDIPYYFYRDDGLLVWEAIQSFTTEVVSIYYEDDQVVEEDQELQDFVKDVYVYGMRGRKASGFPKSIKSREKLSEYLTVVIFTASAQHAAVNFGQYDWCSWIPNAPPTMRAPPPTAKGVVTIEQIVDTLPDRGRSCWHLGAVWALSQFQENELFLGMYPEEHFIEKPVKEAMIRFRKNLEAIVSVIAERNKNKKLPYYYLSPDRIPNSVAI
Description: The inhibition of 5-lipoxygenase was tested in a cell-free homogenate by the procedure of B. Jakschik et al., Biochem.Biophys.Res.Comm. 95, 103 (1980). Basically, rat basophilic leukemia cells (RBL-1 cells) were maintained in culture in a suitable medium, and were collected by centrifugation prior to assay. The cell-free homogenate was prepared by sonication of the cells followed by centrifugation at 40,000 xg. The CaCl2 dependent production of lipoxygenase products from ^14 C-arachidonic acid in the 40,000 xg supernatant was monitored in the presence of buffer (or other vehicle) or drug. Products were isolated by acidification and extraction, followed by thin layer chromatography. Radioactive areas corresponding to the authentic lipoxygenase products were quantitated by liquid scintillation counting. Data was reported as the IC50, the concentration causing 50% inhibition of the generation of lipoxygenase products. The results are shown it Table I as the percent inhibition at 3 μM or the amount of compound necessary to cause 50% inhibition.

[2] = test system: Arachidonate-Induced Ear Edema; assay: Arachidonic Acid-Induced Ear Edema Assay; type: in vivo; details: topical, mouse ear; for inhibition in vivo at 0.4 mg: 400 μg topically; for inhibition in vivo at 0.2 mg: 200 μg topically
Description: The topical anti-inflammatory activity of a compound was determined by its ability to inhibit an experimentally-induced inflammation in the mouse ear. Basically, four milligrams of arachidonic acid in acetone were applied to the dorsal surface of one ear with a microliter pipette. The mice were sacrificed at various times after application of arachidonic acid (one-half to six hours). A section of each ear was removed with a 7 mm round punch and weighed on an electronic or analytical balance. The difference in weight between treated and untreated ears was determined. Compounds to be evaluated for anti-inflammatory activity can be incorporated directly into the irritant mixture or at various times prior to or after application of arachidonic acid.
The degree of anti-inflammatory activity is shown in Table I, and is expressed in terms of the percent inhibition of ear weight increase.

[3] = test system: Arachidonate-Induced Bronchospasm (cyclooxygenase); assay: Pulmonary Mechanics Assay: arachidonate-induced bronchospasm without indomethacin (indicative of cyclooxygenase inhibition); type: in vivo, male Hartley guinea pigs; details: Cavia porcellus, guinea pig; for inhibition in vivo at 15 mg/kg: IV dosing, read-out: Inhibition of Arachidonate-Induced Bronchospasm (IV Dosing), % Inh. without Indomethacin
Description: (§1) The bronchodilating activity of the compounds was tested in a pulmonary mechanics assay. Basically, male Hartley guinea pigs (about 400-500 g) were anesthetized with urethane (2 g/kg, i.p.) and placed in a whole body Plethysmograph. Cannulations of a jugular vein and carotid artery were performed for compound administration and monitoring blood pressure, respectively. The trachea was cannulated for respiration at a constate volume via a miniature starling pump. A Validyne differential pressure transducer (±20 cm H2 O) sensed transpleural pressure via a 15 gauge needle inserted into the pleural cavity and a sidearm from the tracheal cannula. Tidal volume was sensed by another Validyne differential pressure transducer (±2 cm H2 O) from pressure changes inside the plethysmograph. An on-line Buxco pulmonary mechanics computer calculated air flow, dynamic lung compliance and lung resistance. The values were recorded on a print-out.
(§2) The guinea pigs were pretreated with succinyl choline (1.2 mg/kg, i.v.) to arrest spontaneous respiration. A control challenge of arachidonic acid (0.5-1.0 mg/kg, i.v.) was administered, and the animals were then dosed with the test compound by various routes. At least 10 minutes were allowed to expire between arachidonic acid challenges. A second challenge was given and compared to the control response. This comparison was indicative of cyclooxygenase inhibition. Indomethacin (10 mg/kg, i.v.) was administered immediately after the second challenge. A third challenge of a higher dose of arachidonic acid (5-10 mg/kg, i.v.) was given. This response was induced by SRS-A and compared to the responses elicited by a separate control group of animals. Activity was indicative of lipoxygenase inhibition. Propranolol (0.005 mg/kg. i.v.) may be given prior to the third challenge to enhance the response to SRS-A.
(§3) Bronchoconstriction induced by arachidonic acid with or without indomethacin was expressed as maximum percent change in dynamic lung compliance (Cdyn) and maximum percent increase in lung resistance (RL). Each guinea pig served as its own control for cyclooxygenase evaluation. The results are shown in Table I and are expressed as the percent inhibition of control.

[4] = test system: Arachidonate-Induced Bronchospasm (lipoxygenase); assay: Pulmonary Mechanics Assay: arachidonate-induced bronchospasm with indomethacin (SRS-A response, indicative of lipoxygenase inhibition); type: in vivo, male Hartley guinea pigs; details: Cavia porcellus, guinea pig; for inhibition in vivo at 15 mg/kg: IV dosing, read-out: Inhibition of Arachidonate-Induced Bronchospasm (IV Dosing), % Inh. with Indomethacin
Description: as §1, §2, §3

[5] = read-out: Inhibition of Arachidonate-Induced Ear Edema, % Inh. (μg topically)
[6] = ID dosing, read-out: Inhibition of Arachidonate-Induced Bronchospasm (ID Dosing), % Inh. without Indomethacin
[7] = ID dosing, read-out: Inhibition of Arachidonate-Induced Bronchospasm (ID Dosing), % Inh. with Indomethacin

Row | Structure (SMILES) | inhibition at 3 µM [1] | inhibition in vivo at 50 mg/kg [3, 6] | inhibition in vivo at 50 mg/kg [4, 7] | also measured
1 | CCCCCCCCCCN(O)C(=O)NCC(=O)OCC [Example 3, N-(Ethoxycarbonyl)methyl-N'-decyl-N'-hydroxyurea] | 100% | – | – | inhibition in vivo at 0.4 mg [2, 5]: 51%
2 | CCCCCCCCCN(O)C(=O)N(C)C [Example 8, N,N-Dimethyl-N'-nonyl-N'-hydroxyurea] | 93% | – | – | inhibition in vivo at 0.2 mg [2, 5]: 95%
3 | CCCCCCCN(O)C(=O)N(C)C [Example 9, N,N-Dimethyl-N'-heptyl-N'-hydroxyurea] | 64% | – | – | Inhibition of Arachidonate-Induced Ear Edema, ED50 [2]: 55 µg
4 | CCCCCCCCCC(C)(C)NC(=O)N(C)O [Example 20, N-(1,1-Dimethyldecyl)-N'-methyl-N'-hydroxyurea] | 65% | – | – | inhibition in vivo at 0.1 mg ([2]; 100 μg topically, read-out: Inhibition of Arachidonate-Induced Ear Edema, % Inh. (μg topically)): 47%
5 | CCCCCCCCN1CCN(O)C1=O [Example 24, 1-Octyl-3-hydroxyimidazolidin-2-one] | – | – | – | IC50 [1]: 5200 nM; inhibition in vivo at 0.2 mg [2, 5]: 27%
6 | CCCCCCCCCCN1CCCN(O)C1=O [Example 26, 1-Decyl-3-hydroxy-3,4,5,6-tetrahydro-lH-pyrimidin-2-one] | – | – | – | IC50 [1]: 700 nM; inhibition in vivo at 0.4 mg [2, 5]: 30%
7 | CCCCCCCCCCN1C(=O)N(O)CC1C(=O)OCC (centres unmarked) [Example 27, Ethyl 3-decyl-1-hydroxyimidazolidin-2-one-4-carboxylate] | – | – | – | IC50 [1]: 1400 nM; inhibition in vivo at 0.4 mg [2, 5]: 13%
8 | CN(O)C(=O)NCCc1ccc2c(c1)OCO2 [Example 43, N-[2-(3,4-Methylenedioxy)phenyl)ethyl-N'-hydroxy-N'-methylurea] | 65% | < 20% | < 20% | –
9 | COc1cccc(CCNC(=O)N(C)O)c1OC [Example 44, N-[2-(2,3-Dimethoxyphenyl)ethyl]-N'-hydroxy-N'-methylurea] | 33% | < 20% | 58% | –
10 | COc1ccc(CCNC(=O)N(C)O)c(OC)c1 [Example 49, N-[2-(2,4-Dimethoxyphenyl)ethyl]-N'-hydroxy-N'-methylurea] | 99% | – | – | inhibition in vivo at 15 mg/kg [3]: 39%; inhibition in vivo at 15 mg/kg [4]: 67%
11 | CN(O)C(=O)NCCc1ccc(Cl)c(Cl)c1 [Example 50, N-[2-(3,4-Dichlorophenyl)ethyl]-N'-hydroxy-N'-methylurea] | 59% | < 20% | < 20% | –
12 | COc1ccc(CCN(C)C(=O)N(C)O)cc1OC [Example 53, N-[2-(3,4-Dimethyoxyphenyl)ethyl]-N'-hydroxy-N,N'-dimethylurea] | 0% | – | – | inhibition in vivo at 25 mg/kg ([3]; ID dosing, 25 mg/kg, read-out: Inhibition of Arachidonate-Induced Bronchospasm (ID Dosing), % Inh. without Indomethacin): 52%; inhibition in vivo at 15 mg/kg [3]: 79%; inhibition in vivo at 25 mg/kg ([4]; ID dosing, 25 mg/kg, read-out: Inhibition of Arachidonate-Induced Bronchospasm (ID Dosing), % Inh. with Indomethacin): 71%; inhibition in vivo at 15 mg/kg [4]: 51%
13 | C=CCOc1ccc(CCNC(=O)N(C)O)cc1OC [Example 55] | 42% | -68% | 56% | inhibition in vivo at 15 mg/kg [3]: 56%; inhibition in vivo at 15 mg/kg [4]: 83%
14 | COc1ccc(C2C3C=CC(C3)C2NC(=O)N(C)O)cc1OC (stereo not drawn) [Example 58, N-[trans-3-(3,4-Dimethoxyphenyl)bicyclo[2.2.1]-5-hepten-2-yl]-N'-hydroxy-N'-methylurea] | 37% | 35% | 68% | –
15 | COc1cc2c(cc1OC)C(CNC(=O)N(C)O)CC2 (centres unmarked) [Example 60, N-[(5,6-Dimethoxyindan-1-yl)methyl]-N'-hydroxy-N'-methylurea] | 51% | – | – | inhibition in vivo at 15 mg/kg [3]: 48%; inhibition in vivo at 15 mg/kg [4]: 67%
16 | COc1cc2c(cc1OC)CC(NC(=O)N(C)O)CC2 (centres unmarked) [Example 61, N-(6,7-Dimethoxy-1,2,3,4-tetrahydro-2-naphthyl)-N'-hydroxy-N'-methylurea] | 73% | – | – | inhibition in vivo at 15 mg/kg [3]: < 20%; inhibition in vivo at 15 mg/kg [4]: < 20%
17 | COc1ccc(CCCN(CCCc2ccc(OC)c(OC)c2)C(=O)N(C)O)cc1OC [Example 63, N,N-Bis-[3-(3,4-dimethoxyphenyl)propyl]-N'-hydroxy-N'-methylurea] | 76% | < 20% | 21% | –
18 | COc1ccc(CCCNC(=O)N(C)O)cc1OC [Example 65, N-[3-(3,4-Dimethoxyphenyl)propyl]-N'-hydroxy-N'-methylurea] | 19% | 52% | 59% | inhibition in vivo at 15 mg/kg [3]: 86%; inhibition in vivo at 15 mg/kg [4]: 89%
19 | COc1cc(CCNC(=O)N(C)O)ccc1OCc1ccccc1 [Example 68, N-[2-(4-Benzyloxy-3-methoxyphenyl)ethyl]-N'-hydroxy-N'-methylurea] | 69% | < 20% | 28% | –
20 | COc1cc(CCNC(=O)N(C)O)ccc1O [Example 70, N-[2-(4-Hydroxy-3-methoxyphenyl)ethyl]-N'-hydroxy-N'-methylurea] | 39% | < 20% | < 20% | –
21 | COc1ccc(CCNC(=O)N(C)O)cc1O [Example 71, N-[2-(3-Hydroxy-4-methoxyphenyl)ethyl]-N'-hydroxy-N'-methylurea] | 5% | 77% | < 20% | –
22 | COc1ccc(CCNC(=O)NO)cc1OC [Example 72, N-[2-(3,4-Dimethoxyphenyl)ethyl]-N'-hydroxyurea] | 21% | 50% | 56% | –
